For 54 compounds, Ki and inhibition results are on record in ChEMBL document CHEMBL1156885, “Structure-based discovery of novel chemotypes for adenosine A(2A) receptor antagonists” (J Med Chem, 2010).

Each structure is given as a SMILES string.

In the first assay the target is T1, Adenosine receptor A2a (Homo sapiens, UniProt P29274). Description: Inhibition of human adenosine 2A receptor.
T1 sequence (P29274 whole entry): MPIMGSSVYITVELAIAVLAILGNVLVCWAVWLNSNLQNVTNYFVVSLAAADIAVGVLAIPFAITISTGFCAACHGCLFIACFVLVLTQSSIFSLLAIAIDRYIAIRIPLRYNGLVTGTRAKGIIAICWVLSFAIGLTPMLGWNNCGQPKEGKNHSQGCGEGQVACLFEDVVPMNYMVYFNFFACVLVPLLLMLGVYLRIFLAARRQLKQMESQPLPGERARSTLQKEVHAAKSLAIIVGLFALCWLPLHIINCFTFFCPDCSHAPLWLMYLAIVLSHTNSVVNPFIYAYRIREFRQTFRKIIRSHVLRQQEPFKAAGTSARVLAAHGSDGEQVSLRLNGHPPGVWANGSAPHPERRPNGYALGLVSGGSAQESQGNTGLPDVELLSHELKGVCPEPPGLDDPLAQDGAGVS
As usually defined, the Ki is a dissociation constant, usually derived from enzyme kinetics or from competition with a known ligand. Read a low Ki as higher affinity. Turning to `COc1ccc(Cl)cc1Nc1nc(N)nc(-c2oc3ccccc3c2C)n1`, affinity was put at a Ki of 0.032 µM. In other words, the double-digit nanomolar range.

`Cc1cc2oc(N)c(C=O)c(=O)c2cc1C` gave a Ki greater than 100 µM.

The compound `CN(C(=O)CSc1nc(N)nn1-c1ccccc1)c1ccccc1` had a Ki greater than 100 µM.

Compound `N#Cc1c(N)nc2c(C(N)=O)c(Nc3ccccc3)sc2c1-c1ccccc1` had a Ki of 0.63 µM. That is a sub-micromolar value.

As to `Cc1ccc(C(=O)CSc2nc(N)c(C#N)c(-c3cccs3)c2C#N)c(C)c1`, the Ki was greater than 100 µM.

As to `CC(=O)Oc1cccc(-c2nc(C(N)=O)c(N)o2)c1`, the Ki was found to be 36 µM.

In turn, `Nc1cccc2c1C(=O)c1ccccc1C2=O` gave an inhibitory constant (Ki) of 3.2 µM.

Turning to `Nc1c(C(=O)c2ccccc2)oc2ccc(Br)cc12`, the inhibition constant (Ki) was 2.2 µM.

Consider `CCOC(=O)c1cnc(SCC(=O)O)nc1N`, for which the Ki is greater than 100 µM.

Turning to `Nc1c(/C=N/c2ccccc2)ccc2c1C(=O)c1ccccc1C2=O`, the inhibition constant (Ki) is greater than 100 µM.

Consider `Nc1nc(SCCCCC(=O)O)c2[nH]cnc2n1`, for which the inhibitory constant (Ki) was greater than 100 µM.

The compound `Nc1c(C(=O)Nc2nccs2)sc2nc3c(cc12)C(=O)CCC3` registered a Ki of 1 µM. That is a single-digit micromolar value.

Regarding `CCOC(=O)c1cc(-c2ccc(Br)cc2)cc2c(N)sc(Br)c12`, the Ki is greater than 100 µM.

Compound `Cc1ccccc1NC(=O)CSCc1nc(N)nc(Nc2ccccc2C)n1` gave a Ki greater than 100 µM.

Turning to `Nc1nc(CSc2nnc(N)s2)nc(Nc2ccc(F)cc2)n1`, the affinity, expressed as Ki, was 13 µM.

`Nc1c(C(=O)Nc2ccc(F)cc2)sc2nc3c(cc12)N1CCC3CC1` displayed a Ki greater than 100 µM.

Regarding `COc1ccc(N)c2c1C(=O)c1ccccc1C2=O`, the inhibitory constant (Ki) worked out at 0.53 µM.

As to `Nc1c(Sc2ccccc2)cc(Sc2ccccc2)c2c1C(=O)c1ccccc1C2=O`, the Ki was 1.9 µM.

With `CC(=O)c1snc(Nc2cc(Cl)ccc2F)c1N`, the affinity corresponds to a Ki of 41 µM.

Turning to `Cc1ccc(Nc2nc(N)nc(CSCCO)n2)cc1`, the affinity, expressed as Ki, was 17 µM.

For the compound `CCCc1ccc2c(N)c(C(=O)c3ccccc3)sc2n1`, the Ki turned out to be 1.3 µM.

In turn, `COc1ccc(Nc2nc(N)nc(CSc3nnc(N)s3)n2)cc1` had a Ki of 14 µM.

For the compound `COc1ccc(-n2ccnc2SCC(=O)c2c(N)n(C3CC3)c(=O)[nH]c2=O)cc1`, the Ki was 25 µM. Compared with the last compound, the Ki is about 1.8-fold higher.

With `Cn1c(=O)cc2c3c(c(N)ccc31)C(=O)c1ccccc1-2`, affinity was put at a Ki of 0.64 µM.

As for `Cc1ccc(Nc2nc(N)nc(CN3C(=O)NC4(CCCCC4)C3=O)n2)cc1`, the affinity, expressed as Ki, was 2.8 µM.

On to `Nc1c(Oc2ccccc2)ccc2c1C(=O)c1ccccc1C2=O`, for which the affinity, expressed as Ki, was 1 µM.

`CCc1nc2sc(C(=O)c3cccc(Cl)c3)c(N)c2cc1C` returned a Ki of 9.1 µM.

Compound `CC(=O)c1ccc(NC(=O)c2sc3nc4c(cc3c2N)CCCC4)cc1` yielded a Ki greater than 100 µM.

`CC(Sc1nc(N)c(C(=O)Nc2ccccc2)cc1C#N)C(=O)NCc1ccccc1Cl` (stereo unspecified) gave a Ki greater than 100 µM.

Take `Nc1ncnc2[nH]c(SCCC(=O)O)nc12`: the Ki was greater than 100 µM.

In turn, `Cc1ccc(N2C(=O)c3cccc(N)c3C2=O)cc1` returned a Ki of 2.9 µM.

The compound `Cc1ccc(Nc2nc(N)nc(CSC(C)C(=O)NCc3ccccc3Cl)n2)cc1` (stereo unspecified) had a Ki of 6 µM.

Compound `Nc1ccc(Cl)c2c1C(=O)c1ccccc1C2=O` returned a Ki of 0.25 µM.

Compound `Nc1ccc(-c2nc3c(N)cccc3[nH]2)cc1` returned a Ki greater than 100 µM.

The compound `NC1=C(Nc2cccc(C(F)(F)F)c2)C(=O)c2ccccc2C1=O` yielded a Ki of 0.56 µM.

For `N#Cc1c(N)nc2c(oc3ccccc32)c1-c1ccccc1`, the Ki stood at 0.06 µM. This Ki lies about 9.3-fold lower than the previous one.

For the compound `Nc1c(C(=O)Nc2ccc([N+](=O)[O-])cc2)sc2nc3c(cc12)CCCC3`, the inhibitory constant (Ki) stood at 15 µM.

Turning to `Nc1ncnc2sc3c(c12)CCN(C(=O)CN1CSCC1=O)C3`, the Ki was greater than 100 µM.

Turning to `N#CC1=C(NC(=O)CSc2ncc(C#N)c(N)n2)SC2CCCCC12` (stereo unspecified), the affinity corresponds to a Ki of 6.1 µM.

In the case of `CCOC(=O)c1cnc(SCCC(N)=O)nc1N`, the Ki was greater than 100 µM.

The compound `Cc1ccc(Nc2nc(N)nc(CSCC(=O)NC3CC3)n2)cc1` came in with an inhibitory constant (Ki) greater than 100 µM.

With `Nc1c(Nc2ccccc2C(=O)O)c2ccccc2oc1=O`, the Ki is greater than 100 µM.

Consider `COCCOC(=O)c1sc(N)c(C#N)c1C`, for which the affinity, expressed as Ki, was 17 µM. This lies in the double-digit micromolar range.

Consider `Nc1c(C(=O)Nc2ccccc2F)sc2nc3c(cc12)C(=O)CCC3`, for which the Ki stood at 0.3 µM.

`Cc1ccc(Nc2nc(N)nc(CSC(C)C(=O)N3CCCCCC3)n2)cc1` (stereo unspecified) yielded a Ki of 33 µM.

The compound `Nc1nc(CSc2nnc3ccccn23)nc(Nc2ccc(F)cc2)n1` had a Ki greater than 100 µM.

In turn, `Cc1cccc(NC2=C(N)C(=O)c3ccccc3C2=O)c1` returned a Ki of 0.8 µM.

Compound `COC(=O)c1c(N)oc2c(-c3ccc(C)cc3)c3c(C(=O)OC)c(N)oc3cc12` gave a Ki greater than 100 µM.

`Nc1c(C(=O)Nc2ccccc2Cl)sc2ncccc12`: the Ki was greater than 100 µM.

`Nc1ccc(N)c2c1C(=O)c1ccccc1C2=O` gave a Ki of 0.32 µM.

Compound `CN1CCc2nc3sc(C(=O)Nc4ccc(Cl)cc4)c(N)c3cc2C1` gave a Ki of 2.7 µM.

`Nc1c(C(=O)Nc2ccc(Cl)cc2)sc2ncccc12` returned a Ki of 6.9 µM.

`Cc1nc2ccccc2cc1C(=O)OCC(=O)c1c(N)n(C)c(=O)[nH]c1=O` displayed an inhibitory constant (Ki) greater than 100 µM.

Take `Cc1ccc2oc(=N)c3c(N)nc(-c4ccc5c(c4)OCO5)cc3c2c1`: the Ki was greater than 100 µM.

The target of the next assay is T1, Adenosine receptor A2a. Description: Inhibition of human adenosine 2A receptor at 32 uM.
Broadly, the inhibition is the percentage by which the read-out fell short of the control. The compound `N#Cc1c(N)nc2c(oc3ccccc32)c1-c1ccccc1` showed an inhibition of 91%.

A further assay concerns the target T1, Adenosine receptor A2a. Description: Inhibition of human adenosine 2A receptor at 2 uM.
On to `COc1ccc(Cl)cc1Nc1nc(N)nc(-c2oc3ccccc3c2C)n1`, for which the inhibition worked out at 80%.
